Patent US8481484B2, “Cyclic heptapeptide and use of the same” (National University Corporation Nagoya University, priority 2007, dated 2013)

Tested on: Murine preadipocytes (3T3-L1)
Assay: Fat accumulation in 3T3-L1 preadipocytes during induced differentiation (Triglyceride E-test)
Format: cell-based
Conditions: 3T3-L1, differentiation-inducing medium with test compound, seven days; stated in words, numbers only in FIG. 7
Method: Murine preadipocytes (3T3-L1) have such a property as to accumulate fat following differentiation. In the present test, while differentiation of 313-L1 preadipocytes was induced by insulin and the like, test compounds were simultaneously added. Then, an amount of fat in the cells was measured to evaluate that the test compounds exert inhibition of differentiation of the preadipocytes or an inhibitory effect on fat accumulation following differentiation. In this test, in a case where cells die due to the test compounds, there is concern that the test might unintentionally result in a low fat accumulation rate, which is seemingly a favorable result. […] Also, fat accumulation was observed under a microscope from time to time during the test.
Preadipocytes (3T3-L1) were cultured to confluence in the presence of 5% CO2 at 37° C. for two days in 150 μL of culture media (DMEM containing 10% fetal bovine serum (glucose concentration of […])) in two 96-well microplates. Then, with respect to both plates, the culture media were aspirated and replaced with 150 μL of differentiation-inducing media containing a certain concentration of test compounds (DMEM containing 10% fetal bovine serum (glucose concentration of […]) in which 1 μM dexamethasone, 10 μg/mL insulin, and 0.5 mM 3-isobutyl-1-methylxanthine were dissolved). Normally, methanol solution containing a 200-fold concentration of test compounds (1a, 1b, 1c, 1d, and 1e) was prepared, and 7.5 μL of the solution was added with respect to 1.5 mL of the differentiation-inducing media. At this time, a well that was not replaced with the differentiation-inducing medium and a well to which only methanol was added instead of a sample solution were prepared as a control. The plates were cultured in the presence of 5% CO2 at 37° C. for seven days. Thereafter, one plate was served for measurement of an amount of fat, and the other plate was served for measurement of a survival rate.
To each well of the plate for measurement of an amount of fat, 10 μL of 2% Triton X-100 was added, and the plate was left to stand for 30 minutes. Subsequently, the plate was sealed with a sealing tape (a product of Asahi Techno Glass Corporation) and sonicated for one minute in an ultrasonic cleaner. Subsequently, 20 μL of solution was collected from each well and added to a 96-well microplate in which 150 μL of Triglyceride E-test Wako (a product of Wako Pure Chemical Industries, Ltd.), a coloring reagent, had been added to each well, and then the plate was incubated at 37° C. for 30 minutes, after which absorbance (at 630 nm, control at 690 nm) was measured by a plate reader. A ratio of absorbance in a compound-added group to absorbance in a compound-free group was obtained as a percentage, which was provided as a fat accumulation rate. Fat accumulation rates with respect to a concentration in each sample were represented as a semilogarithmic graph. From this graph a compound concentration at which a fat accumulation rate was 50% was read off, which was provided as a 50% effective concentration (EC50). It can be interpreted that the smaller the EC50 value is, the stronger the inhibitory effect on differentiation of adipocytes or on fat accumulation in adipocytes is.

Row | SMILES | EC50 (compound concentration at which the fat accumulation rate is 50%); inhibitory effect on differentiation of adipocytes or on fat accumulation
1 | CC[C@H](C)[C@H]1NC(=O)[C@@H](C)NC(=O)[C@@H](C)N(C)C(=O)[C@H](C)N(C)C(=O)[C@H](CC(C)C)NC(=O)[C@H](CC(C)C)N(C)C(=O)[C@H](C)N(C)C1=O [1a] | excellently exerts an inhibitory effect on differentiation of adipocytes or on fat accumulation in adipocytes
2 | CC[C@H](C)[C@H]1NC(=O)[C@@H](CC(C)C)NC(=O)[C@@H](C)N(C)C(=O)[C@H](C)N(C)C(=O)[C@H](CC(C)C)NC(=O)[C@H](CC(C)C)N(C)C(=O)[C@H](C)N(C)C1=O [1b] | excellently exerts an inhibitory effect on differentiation of adipocytes or on fat accumulation in adipocytes
3 | CC[C@H](C)[C@H]1NC(=O)[C@@H](COCc2ccccc2)NC(=O)[C@@H](C)N(C)C(=O)[C@H](C)N(C)C(=O)[C@H](CC(C)C)NC(=O)[C@H](CC(C)C)N(C)C(=O)[C@H](C)N(C)C1=O [1c] | excellently exerts an inhibitory effect on differentiation of adipocytes or on fat accumulation in adipocytes
4 | CC[C@H](C)[C@H]1NC(=O)[C@@H]([C@H](C)O)NC(=O)[C@@H](C)N(C)C(=O)[C@H](C)N(C)C(=O)[C@H](CC(C)C)NC(=O)[C@H](CC(C)C)N(C)C(=O)[C@H](C)N(C)C1=O [1d] | excellently exerts an inhibitory effect on differentiation of adipocytes or on fat accumulation in adipocytes
5 | CC[C@H](C)[C@H]1NC(=O)[C@@H](CO)NC(=O)[C@@H](C)N(C)C(=O)[C@H](C)N(C)C(=O)[C@H](CC(C)C)NC(=O)[C@H](CC(C)C)N(C)C(=O)[C@H](C)N(C)C1=O [1e] | excellently exerts an inhibitory effect on differentiation of adipocytes or on fat accumulation in adipocytes
